Where “and” joins values, the source holds several entries; their conditions need not be identical. Identical values can stand only once.
Key:
[1] = molecular target: T1, human leukocyte 5-lipoxygenase (Homo sapiens, UniProt P09917); experiment: 5-lipoxygenase inhibition in human leukocytes, 5-HETE formation (5LOA; methods 5LOA1 and 5LOA2); assay type: cell-based; conditions: 5-HETE formation, human leukocytes; read-out: Concentration (M) for 50.0 % Inhibition, IC (5LOA)
T1 construct: endogenous in cells; host or cells: intact leukocytes isolated from human blood
T1 sequence (P09917 1-674): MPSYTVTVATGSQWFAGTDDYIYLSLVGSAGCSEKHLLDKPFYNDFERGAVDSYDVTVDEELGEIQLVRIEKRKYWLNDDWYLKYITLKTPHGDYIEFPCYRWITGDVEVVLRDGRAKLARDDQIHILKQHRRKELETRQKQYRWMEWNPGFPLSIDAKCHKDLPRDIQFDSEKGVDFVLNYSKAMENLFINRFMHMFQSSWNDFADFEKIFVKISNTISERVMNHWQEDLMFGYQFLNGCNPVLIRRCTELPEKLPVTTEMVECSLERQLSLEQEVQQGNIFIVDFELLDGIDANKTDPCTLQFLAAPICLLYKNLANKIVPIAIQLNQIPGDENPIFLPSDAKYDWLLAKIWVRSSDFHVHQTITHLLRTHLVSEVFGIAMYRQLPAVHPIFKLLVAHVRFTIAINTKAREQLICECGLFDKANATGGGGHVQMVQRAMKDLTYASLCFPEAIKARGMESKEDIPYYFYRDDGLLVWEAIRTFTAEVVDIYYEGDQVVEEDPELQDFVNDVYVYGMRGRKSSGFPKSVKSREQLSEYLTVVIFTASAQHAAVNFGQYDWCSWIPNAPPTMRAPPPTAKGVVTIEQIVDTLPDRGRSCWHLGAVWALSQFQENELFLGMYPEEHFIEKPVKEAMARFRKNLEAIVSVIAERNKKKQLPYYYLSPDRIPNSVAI
Description: To Evaluate the Effect of Each Compounds as a 5-Lipoxygenase Inhibitor in Comparison to Standard Reference Agents in Human Leukocytes (5LOA1)
The purpose of this assay is to evaluate the activity of each compound as an inhibitor of human leukocyte 5-lipoxygenase.
Arachidonic acid and calcium ionophore A23187 are obtained from Sigma (St. Louis, MO). Silica gel plates, GF are obtained from Analtech (Newark, DE). Arachidonic acid, (1-^14 C) and 5-HETE (^3 H), 5 (S)-hydroxy-6-trans,8,11,14-cis eicosatetraenoic acid, are obtained from New England Nuclear (Boston, MA). Six percent Dextran-70 in 0.9% NaCl is obtained from Cutter Labs (Berkeley, CA).
Preparation of Leukocytes
Fresh blood from normal adult men who had not received any drugs for at least the previous five days is obtained by the Community Research Clinic (WL/PD) using venipuncture and collected into heparinized vacuotainer tubes. To every 100 ml of pooled blood is added 25 ml of dextran solution (6% dextran -70 in 0.9% sodium chloride containing 3% dextrose) and this is mixed gently in a plastic cylinder. The mixture is left to stand at room temperature for at least 90 minutes. The upper layer which is rich in leukocytes and platelets is then carefully decanted into 50 ml plastic tubes and centrifuged at about 100×g for eight minutes in an IEC centrifuge and rotor number 269 (about 600 rpm). The supernatant fluid is discarded and the pellet is resuspended in 10 ml of 0.87% ammonium chloride for exactly two minutes. This procedure is to lyse completely contaminating red blood cells. Leukocytes are then separated by centrifugation for ten minutes. The pellet is washed three times by suspension in 20 ml PBS (sodium chloride, 7.1 g; Na2 HPO4, 1.15 g; KH2 PO4, 0.2 g, and KCl, 0.2 g/L) and centrifuged as before. The final pellet is suspended in PBS containing 0.87 mM CaCl2. Viability of the cells is then checked using trypan blue exclusion method and is found to be over 90%.
5-Lipoxygenase Enzyme Assay
Leukocyte cells in suspension (0.98 ml) are incubated with or without test compounds for five minutes at 37° C. in a shaking water bath. At this time a 17 μl mixture is prepared per 1 ml of cell suspension: 100 mM arachidonic acid, 1 μl, 0.05 μCi ^14 C-arachidonic acid in 5 μl; 1 mM calcium ionophore A23187, 10 μl (1). This mixture is added and the incubation continued for five minutes. The reaction is stopped by adding four volumes of absolute ethanol and the mixture is kept in ice for 30 minutes. The floculated precipitate is separated by centrifugation at about 37,000×g for 20 minutes (Beckman Instruments rotor number 40). The alcohol extract is taken to dryness under a stream of nitrogen and the residue is dissolved in 100-200 μl absolute ethanol. At the time any turbidity is removed by centrifugation. An aliquot (25-50 μl) is applied onto 20×20 cm silica gel TLC plate and developed using the following solvent system: diethyl ether, petroleum ether (2040° C.), acetic acid (50:50:1 v/v). Zones of 1 cm apart are scraped from the TLC plate and transferred to mini-vials. Methanol (0.5 ml) is added to dissolve the radioactivity adsorbed to the silica gel and scintillation fluid (H. P., Beckman), 5 ml is then added and vials are counted in a liquid scintillation counter. A sample of ^3 H-5-HETE is applied and used for the identification of the formed 5-HETE.
Total radioactivity in the test as well as the control samples are normalized and the amount of 5-HETE present is calculated accordingly.
IC50 values are defined as the concentrations of test agents which caused a 50% inhibition of the formation of 5-HETE as compared to control and are determined by inspection of the concentration-response curves.
5-Lipoxygenase Assay Using Isolated Human Leukocytes (5LOA2)
The formation of 5-HETE in human leukocytes is considered a measure of 5-lipoxygenase activity. The protocol is described in the following. […]

[2] = molecular target: Human Leukocyte Lipoxygenase; experiment: Human Leukocyte Lipoxygenase Assay (LDA-H); assay type: biochemical; conditions: for IC50: acetone-pentane powder enzyme, 234 nm, 24° C., 5 min preincubation, read-out: Concentration (M) for 50.0 % Inhibition, IC (LDAH); for % Inhibition (LDAH): Concentration 2.50 E -5 M
Description: Human Leukocyte Lipoxygenase Assay (LDA-H)
Whole blood is collected from normal volunteers and spun in a refrigerated centrifuge for four minutes at 1°-6° C. at 3800 g. The buffy coat is manually separated and washed twice with chilled 0.83% NH4 Cl and centrifuged at 1000 RPM for ten minutes at 4° C. The white cell is suspended in culture media-EMEM supplemented with 6% Agamma human serum, tricine buffer, and neomycin and recentrifuged at 1000 g to yield a pellet containing the leukocytes used for the preparation of the acetone pentane powder.
The acetone-pentane powder is prepared utilizing a modification of the procedure reported for human platelet lipoxygenase. See Siegel, et al, Arachidonate Metabolism via Lipoxygenase and 12-L-hydroperoxy-5 Eicosatetraenoic Acid Peroxidase Sensitive to Antiinflammatory Drugs, Proc. Natl. Acad. Sci., USA 77: 308, 1980 and D. P. Wallach and V. R. Brown, A Novel Preparation of Human Platlet Lipoxygenase, Biochem. Biophys. Acta. 663: 361, 1981. Buffy coat prepared above is resuspended in 5-7 volumes of cold 0.1M Tris buffer, pH 7.4 containing 0.154M NaCl. The suspension is centrifuged at 13,300 g for ten minutes at 4° C. The resultant pellet is retained, resuspended in five volumes of cold acetone, recentrifuged at 13,300 g and resuspended in five volumes of cold pentane. The pentane suspension is centrifuged for ten minutes at 13,300 g to give a pellet which is dried in the cold under vacuum with periodic pulverization. The dry powder is stable for several weeks when stored at -80° C.
Enzyme stock solution is prepared in the following manner. About 15 mg of the acetone-pentane powder is suspended in 4 ml of cold tris buffer (0.1M, pH 7.4), allowed to stand for five minutes, and homogenized thoroughly. The homogenate is sonicated three times for 15 seconds each time, diluted to 7 ml with cold tris buffer (0.1M, pH 7.4), and centrifuged at 4° C. for 60 minutes at 13,300 g. the supernatent is retained and diluted to a total of 10 ml with cold tris buffer (0.1M, pH 7.4) to give the stock enzyme solution. Additional dilutions of 2-50 fold are done as necessary to locate optimal enzyme reaction rate in the assay described below.
Substrate solution is prepared at 100 μM or 1.0 μM concentrations of arachidonic acid or linoleic acid in 0.1M tris buffer, pH 9.0 containing 20% ethanol.
The enzyme reaction is followed spectrophotometrically by the appearance of a conjugated diene product at 234 nm. The reaction is monitored at 24° C. using a Gilford Model 2600 spectrophotometer. […] The effects of inhibitors on the reaction are compared with control reactions run under indentical conditions. Routinely, each compounds of the present invention is incubated with the enzyme for five minutes prior to addition of substrate to initiate the reaction. Inhibition expressed as IC50 as molar concentration of the compound required to reduce reaction rate to 50% control.

| IC50 [1] | IC50 [2] [M] | % Inhibition (LDAH) [2] [%] | Structure (SMILES) |
| --- | --- | --- | --- |
| 2e-05 M and 2.1e-05 M | – | – | O=C(Nc1ccc(CCc2ccc(O)c(O)c2)cc1)C(=O)C1=C(O)c2ccccc2S(=O)(=O)C1 [Example 6, N-[4-[2-(3,4-Dihydroxyphenyl)ethyl]phenyl]-4-hydroxy-α-oxo-2H-1-benzothiopyran-3-acetamide, 1,1-dioxide] |
| 4.8e-06 M | – | – | COc1ccc2c(c1)c1c(n2-c2ccccc2)C(=O)C(C(=O)Nc2ccc(CCc3ccc(OC)c(OC)c3)cc2)O1 (centres unmarked) [Example 158] |
| 9e-06 M | – | – | COc1ccc(CCc2ccc(NC(=O)c3oc4c5ccccc5n(C)c4c3O)cc2)cc1OC [Example 161, 4H-Furo[3,2-b]indole-2-carboxamide, N-[4-[2-(3,4-dimethoxyphenyl)ethyl]phenyl]-3-hydroxy-4-methyl] |
| 1.8e-06 M | 4.7e-06 | – | O=C(Nc1ccc(CCc2ccc(O)c(O)c2)cc1)C(=O)C1=C(O)c2ccccc2OC1 [Example 150] |
| 5e-07 M | 1.6e-06 | – | O=C(Nc1ccc(CCc2ccc(O)c(O)c2)cc1)C(=O)C1Oc2cc3ccccc3cc2C1=O (centres unmarked) [Example 129] |
| 7e-07 M | 8.2e-06 | – | O=C(Nc1ccc(CCc2ccc(O)c(O)c2)cc1)C1=C(O)c2ccccc2S(=O)(=O)C1 [Example 21, N-[4-[2-(3,4-Dihydroxyphenyl)ethyl]phenyl]-4-hydroxy-2H-1-benzothiopyran-3-carboxamide, 1,1-dioxide] |
| 4e-07 M | – | – | COc1cc(C=Cc2ccc(NC(=O)C3=C(O)c4ccccc4S(=O)(=O)N3C)cc2)ccc1O [Example 87, 2H-1,2-Benzothiazine-3-carboxamide, 4-hydroxy-N-[4-[2-(4-hydroxy-3-methoxyphenyl)ethenyl]phenyl]-2-methyl, 1,1-dioxide] |
| 6.04e-06 M and 6.35e-06 M | – | – | COc1cc(CCc2ccc(NC(=O)C3Oc4ccc5ccccc5c4C3=O)cc2)ccc1O (centres unmarked) [Example 110, Naphtho[2,1-b]furan-2-carboxamide, N-[4-[2-(4-hydroxy-3-methoxyphenyl)ethyl]phenyl]-1,2-dihydro-1-oxo] |
| 3.55e-06 M and 2.17e-06 M | – | – | O=C(Nc1ccc(CCc2ccc(O)c(O)c2)cc1)C(=O)C1Oc2ccccc2C1=O (stereo not drawn) [Example 126, 2-Benzofuranacetamide, N-[4-[2-(3,4-Dihydroxyphenyl)ethyl]phenyl]-2,3-dihydro-α,3-dioxo-] |
| 1.18e-06 M | – | – | Cn1c2ccccc2c2oc(C(=O)Nc3ccc(CCc4ccc(O)c(O)c4)cc3)c(O)c21 [Example 159, 4H-Furo[3,2-b]indole-2-carboxamide, N-[4-[2-(3,4-Dihydroxyphenyl)ethyl]phenyl]-3-hydroxy-4-methyl] |
| 5e-07 M | – | 0.0 | O=C(Nc1ccc(CCc2ccc(O)c(O)c2)cc1)C1Oc2c(n(-c3ccccc3)c3ccc(O)cc23)C1=O (centres unmarked) [Example 163, 2H-Furo[3,2-b]indole-2-carboxamide, N-[4-[2-(3,4-dihydroxyphenyl)ethyl]phenyl]-3,4-dihydro-7-hydroxy-3-oxo-4-phenyl] |
| 5e-06 M | – | – | COc1cc(CCc2ccc(NC(=O)C3=C(O)c4ccccc4S(=O)(=O)C3)cc2)ccc1O [Example 70, 2H-1-Benzothiopyran-3-carboxamide, 4-hydroxy-N-[4-[2-(4-hydroxy-3-methoxyphenyl)ethyl]phenyl]-, 1,1-dioxide] |
| 8.5e-06 M | – | 0.0 | COc1ccc(CCc2ccc(NC(=O)C3Oc4cc5ccccc5cc4C3=O)cc2)cc1OC (centres unmarked) [Example 101, Naphtho[2,3-b]furan-2-carboxamide, N-[4-[2-(3,4-dimethoxyphenyl)ethyl]phenyl]-2,3-dihydroxy-3-oxo] |
| 7.6e-07 M | 2.3e-06 | – | O=C(Nc1ccc(CCc2ccc(O)c(O)c2)cc1)c1oc2ccc3ccccc3c2c1O [Example 122, Naphtho[2,1-b]furan-2-carboxamide, N-[4-[2-(3,4-dihydroxyphenyl)ethyl]phenyl]-1-hydroxy-] |
| 1.21e-05 M | – | – | O=C(Nc1ccc(CCc2ccc(Cl)cc2)cc1)c1sc2ccccc2c1O [Example 145, Benzo[b]thiophene-2-carboxamide, N-[4-[2-(4-chlorophenyl)ethyl]phenyl]-3-hydroxy] |
| 4.2e-06 M | 6.5e-06 | – | O=C(Nc1ccc(CCc2ccc(O)c(O)c2)cc1)c1oc2ccccc2c1O [Example 124, 2-Benzofurancarboxamide, N-[4-[2-(3,4-dihydroxyphenyl)ethyl]phenyl]-3-hydroxy] |

— patent US4868195A, “Novel enolamides, pharmaceutical compositions and methods of use thereof for activity as modulators of the arachidonic acid cascade” (Warner-Lambert Company, priority 1988, dated 1989)
